Experimental data reported in a melting point compilation (Tetko et al.).

Q: With `CCOC(=O)c1cc(CC)sc1NC(=O)C(C)Cl` (configuration not stated) as the molecule, how does the melting point read?
A: 57 to 59 °C

Q: With `COC(OC)(OC)c1cc2ccccc2c(=O)[nH]1` as the molecule, how does the melting point read?
A: 131 to 133 °C

Q: For `CC(C)(C(=O)O)c1ccc(-c2ccccc2)cc1`, which melting point is on record?
A: 173 to 175 °C

Q: With `CCc1nc(N)sc1C(=O)O` as the molecule, how does the melting point read?
A: 154 to 156 °C

Q: Which melting point does the source give for `Cc1ccc(C)c(-n2nnnc2S)c1` here?
A: 129 to 131 °C

Q: Which melting point does the source give for `Cc1ccc(Cl)c2c1NC(=O)C2=O` here?
A: 275 to 277 °C

Q: Which melting point does the source give for `O=C(O)COc1ccc(S(=O)(=O)Cl)cc1Cl` here?
A: 123 to 125 °C

Q: With `Cn1cc(-c2cccc(CN)c2)cn1` as the molecule, how does the melting point read?
A: 69 to 71 °C

Q: Which melting point does the source give for `CC1(C)COC2(CCNCC2)OC1` here?
A: 62 to 64 °C

Q: Which melting point does the source give for `CC(O)C(NC(=O)C1CCCC1)C(=O)O` (configuration not stated) here?
A: 145 to 147 °C

Q: For `CNC(=O)c1ccc(NC(=O)CCl)cc1`, which melting point is on record?
A: 206 to 208 °C

Q: For `COC(=O)c1cc(S(=O)(=O)N2CCCC2)ccc1O`, which melting point is on record?
A: 160 to 162 °C

Q: With `CCOc1cccc(C=O)n1` as the molecule, how does the melting point read?
A: 55 to 57 °C

Q: With `NC(=O)Cn1cc(NC(=O)OCC(F)(F)F)cn1` as the molecule, how does the melting point read?
A: 150 to 152 °C

Q: With `O=C(O)C1CCN(S(=O)(=O)N2CCCCC2)CC1` as the molecule, how does the melting point read?
A: 131 to 133 °C

Q: For `Nc1oc2ccccc2c(=O)c1C=O`, which melting point is on record?
A: 249 to 251 °C

Q: Which melting point does the source give for `OCc1ccc2c(c1)NCC2` here?
A: 49 to 51 °C

Q: Which melting point does the source give for `Nc1ccccc1NC(=O)c1ccccc1I` here?
A: 189 to 191 °C

Q: With `CC(C)c1ccc(C(N)CC(=O)O)cc1` (configuration not stated) as the molecule, how does the melting point read?
A: 234 to 236 °C

Q: With `NCc1cccnc1N1CCC(C(N)=O)CC1` as the molecule, how does the melting point read?
A: 129 to 131 °C

Q: For `c1ccc(-c2cc[nH]c2)nc1`, which melting point is on record?
A: 126 to 128 °C

Q: Which melting point does the source give for `CC(=O)c1ccc(-n2cnc3ccccc32)cc1` here?
A: 135 to 137 °C

Q: For `CC1(C)CCc2[nH]c3ccccc3c2C1`, which melting point is on record?
A: 103 to 105 °C

Q: For `O=[N+]([O-])c1cc(S(=O)(=O)Cl)ccc1O`, which melting point is on record?
A: 52 to 54 °C

Q: With `CN(C)C(=O)CO` as the molecule, how does the melting point read?
A: 32 to 34 °C

Q: Which melting point does the source give for `Cc1nn(C)c(C)c1OCC(=O)O` here?
A: 172 to 174 °C

Q: Which melting point does the source give for `O=C1Nc2ccccc2S(=O)(=O)N1` here?
A: 301 to 303 °C

Q: For `Cc1cc(S(N)(=O)=O)c(C)cc1Br`, which melting point is on record?
A: 207 to 209 °C

Q: Which melting point does the source give for `Cc1nnc2ccc(Cl)nn12` here?
A: 103 to 105 °C

Q: For `CN(C)c1cc(C#N)ccn1`, which melting point is on record?
A: 69 to 71 °C

Q: With `CNc1ncccc1N` as the molecule, how does the melting point read?
A: 108 to 110 °C

Q: For `Cc1ccc(C)c(-c2nc(N)sc2C)c1`, which melting point is on record?
A: 92 to 94 °C

Q: For `O=C(O)C1CC(c2ccc(Cl)cc2Cl)=NO1` (configuration not stated), which melting point is on record?
A: 115 to 117 °C

Q: For `COc1ccccc1-c1cnc(CCl)o1`, which melting point is on record?
A: 86 to 88 °C

Q: With `COc1cc(C=O)ccc1OS(=O)(=O)c1cc(C)ccc1C` as the molecule, how does the melting point read?
A: 82 to 84 °C

Q: With `CCOc1nnc(Cl)c2ccccc12` as the molecule, how does the melting point read?
A: 80 to 82 °C

Q: With `COC(=O)CCc1nnc(N)s1` as the molecule, how does the melting point read?
A: 135 to 137 °C

Q: Which melting point does the source give for `Fc1ccc2nc(NCc3ccccc3)sc2c1` here?
A: 182 to 184 °C

Q: For `Cn1ccnc1C(O)(CCN)C(F)(F)F` (configuration not stated), which melting point is on record?
A: 115 to 117 °C

Q: With `N#Cc1ccc(I)cc1C#N` as the molecule, how does the melting point read?
A: 140 to 142 °C

Q: With `O=[N+]([O-])c1ccc2c(c1)NCCS2` as the molecule, how does the melting point read?
A: 142 to 144 °C

Q: With `Cc1[nH]nc(C(=O)O)c1[N+](=O)[O-]` as the molecule, how does the melting point read?
A: 183 to 185 °C

Q: Which melting point does the source give for `CCOC(=O)C(O)c1ncc(Cl)n1C` (configuration not stated) here?
A: 85 to 87 °C

Q: Which melting point does the source give for `O=C(O)c1ccc(-c2noc(C(F)(F)F)n2)cc1` here?
A: 249 to 251 °C

Q: With `O=C(O)c1cc(-c2ccc(Cl)cc2)on1` as the molecule, how does the melting point read?
A: 185 to 187 °C

Q: Which melting point does the source give for `Cc1ccc(N)cc1OCC1CCOCC1` here?
A: 114 to 116 °C

Q: With `ON=C1CCN(Cc2ccccn2)CC1` as the molecule, how does the melting point read?
A: 61 to 63 °C

Q: With `O=C1NCCCc2sccc21` as the molecule, how does the melting point read?
A: 89 to 91 °C

Q: Which melting point does the source give for `O=Cc1cn(Cc2ccccc2)nc1-c1cccs1` here?
A: 90 to 91 °C

Q: For `O=C(O)CNC(=O)C1CCC1`, which melting point is on record?
A: 107 to 109 °C

Q: Which melting point does the source give for `COC(=O)c1[nH]c(=O)[nH]c1C` here?
A: 229 to 231 °C

Q: With `Nc1ccc(NS(=O)(=O)c2ccc3c(c2)OCCO3)cc1` as the molecule, how does the melting point read?
A: 176 to 178 °C

Q: For `CC(C)c1ccc(C(=O)CC#N)cc1`, which melting point is on record?
A: 91 to 93 °C

Q: For `CC(C)C(NC(=O)CCc1ccccc1)C(=O)O` (configuration not stated), which melting point is on record?
A: 147 to 149 °C

Q: With `COC(=O)c1ccc(CNC(=O)CCl)cc1` as the molecule, how does the melting point read?
A: 108 to 110 °C

Q: Which melting point does the source give for `O=c1cnc2ccccc2n1CCS(=O)(=O)F` here?
A: 145 to 147 °C

Q: With `NS(=O)(=O)c1ccc(C(=O)O)cc1F` as the molecule, how does the melting point read?
A: 274 to 276 °C

Q: Which melting point does the source give for `Cc1cc(=O)[nH]c(SCC(=O)O)c1C#N` here?
A: 198 to 200 °C

Q: For `CC1(c2cccc(C#N)c2)NC(=O)NC1=O` (configuration not stated), which melting point is on record?
A: 202 to 204 °C

Q: For `N#Cc1cc(C=O)ccc1F`, which melting point is on record?
A: 80 to 84 °C

Q: With `Sc1ccc(Cl)nn1` as the molecule, how does the melting point read?
A: 148 to 150 °C

Q: With `Cc1ccc(-c2nnc(N)[nH]2)cc1` as the molecule, how does the melting point read?
A: 206 to 208 °C

Q: For `CC(C)C(Br)C(=O)Nc1ccccc1Cl` (configuration not stated), which melting point is on record?
A: 114 to 116 °C

Q: With `O=C(CCl)Cc1c(F)cccc1Cl` as the molecule, how does the melting point read?
A: 37 to 39 °C

Q: With `Sc1nnnn1-c1ccc2c(c1)OCO2` as the molecule, how does the melting point read?
A: 157 to 159 °C

Q: Which melting point does the source give for `NC(=O)Cn1c(S)nnc1-c1ccco1` here?
A: 313 to 315 °C

Q: Which melting point does the source give for `O=C1CCCCN1c1ccc(Br)cc1F` here?
A: 96 to 98 °C

Q: With `COc1cc(C=O)c([N+](=O)[O-])cc1OCc1ccccc1` as the molecule, how does the melting point read?
A: 130 to 132 °C

Q: Which melting point does the source give for `CNCCCc1cc(-c2ccc(F)cc2)n[nH]1` here?
A: 104 to 106 °C

Q: With `O=C(Nc1cccc(O)c1)c1cccs1` as the molecule, how does the melting point read?
A: 154 to 156 °C

Q: For `CCOC(=O)Nc1ccc(NC(C)c2ccccn2)cc1` (configuration not stated), which melting point is on record?
A: 145 to 147 °C

Q: With `NC(=S)CCCc1ccccc1` as the molecule, how does the melting point read?
A: 59 to 61 °C
